Entries after “also recorded” stand apart in the source; their conditions may differ.
Tests used:
[1] = tested on: normal human epidermal melanocytes; assay: Cell viability / L20 toxicity assay (Cell Titer 96 Aqueous One Solution); type: cell-based
Description: (§1) L20 is a glycinamide derivative of lipoic acid and was treated on normal human epidermal melanocytes at different doses for 48 h. Doses more than 0.05% L20 appeared to have moderate toxicity (FIG. 1a). We determined the ability of L20 to inhibit melanin synthesis in melanocyte cultures. L20 was used at a non-toxic dose of 0.001% for 7 days (FIG. 1b), their treatment was carried on consecutive days. After a week of treatment, the melanin was extracted and quantified using a melanin standard curve.
Cell culture: Normal human epidermal melanocytes (Lonza, Walkersville, MA) were grown in special melanocyte media MGM4 with supplements (Lonza, Walkersville, MA). Cells were plated and treated with different doses of L20 for 48 h. L20 was initially dissolved in DMSO (100%) and serial dilution were made in media. The stock was diluted a 1000 fold, to have less than […] DMSO in final solution. Microscopic images were taken using 10× magnification. Normal human dermal fibroblasts (Lonza, Walkersville, MA) were grown in special fibroblast growth media (Lonza, Walkersville, MA). […] To test cell viability, Cell Titer 96® Aqueous One Solution Cell Proliferation Assay was used and absorbance was measured colorimetrically at 490 nm using Tecan microplate reader.

[2] = tested on: normal neonatal human epidermal melanocytes; assay: Melanin reduction assay in melanocyte cultures; type: cell-based
Description: as §1
Melanin Reduction assay: Normal human epidermal melanocytes were treated with control or L20 for 7 days, and L20 was replaced on consecutive days. Cells were collected on the 7th day and maintained in Solvable (Perkin Elmer, Akron, OH) overnight at 65 degrees overnight. In parallel, melanin (Sigma, St. Louis, MO) standards were made in Solvable and treated similarly to the samples. Melanin content was then quantified colorimetrically using a Tecan microplate reader at 490 nm.

[3] = tested on: MelanoDerm keratinocyte-melanocyte co-cultures; assay: MelanoDerm study: melanin content and skin lightening in 3D keratinocyte-melanocyte co-cultures; type: cell-based, human; conditions: for decrease of melanin content compared to control: darkly pigmented MelanoDerm
Description: (§2) MelanoDerms are co-culture models of keratinocytes and melanocytes and were used to test the ability of L20 as an anti-melanogenic compound. MelanoDerms were derived from a normal adult with darkly pigmented skin. These tissues were treated for two weeks on consecutive days with different doses of L20. One set of cultures were used for regression study, where it was taken off L20 after a week of treatment. Two weeks after treatment, the tissues were tested for melanin content and cell viability (FIG. 2a). […] The melanin content was assayed using a melanin standard curve.
(§3) MelanoDerm Study: MelanoDerms study was performed as per company instructions (Mattek, Ashland, MA). MelanoDerm tissues were derived from darkly pigmented skin type. The tissues were stabilized for 24 h and then treated with different doses of L20 (25 ul) in WEP modified vehicle. The MelanoDerms were treated for 2 weeks on consecutive days. Microscopic images were taken every other day. After two weeks, MTT assay was performed using Cell Titer 96® Aqueous One Solution and melanin content was assayed as mentioned in the protocol.

[4] = tested on: MelanoDerm keratinocyte-melanocyte co-cultures; assay: MelanoDerm survival (MTT assay); type: cell-based, human; conditions: L20 0.5%, two weeks
Description: as §2, §3

[5] = tested on: procollagen in EpiDerm-FT fibroblast-keratinocyte co-cultures; assay: Procollagen ELISA in EpiDerm-FT tissue; type: cell-based, human; conditions: L20 1% in WEP vehicle, 48 h, p<0.02, FIG. 3
Description: Dermal fibroblast plays an important role in photo-aging and skin homeostasis. We determined if L20 had any anti-aging benefit using dermal fibroblasts. Normal human EpiDerm-FT tissue was used in the study. The Epiderm-FT consists of a fully differentiated epidermal and dermal skin layers. It also has 10-15 layers of stratum corneum and also basal, spinous and granular layers. The tissues were treated with vehicle control and L20 (1%), for 48 h. The tissues were used to measure the expression of procollagen using ELISA assay. The levels of procollagen were normalized to total protein.
L20 was prepared as 1% solution in WEP vehicle consisting of water, ethanol and propylene glycol at native pH. […] The tissue samples were digested using cell lysis buffer and the expression levels of procollagen protein were determined. Procollagen was quantified using standard ELISA technique (Takara Bio Inc.).
Epiderm Study: Epiderm-FT (Mattek, Ashland, MA) was used for the study, derived from neonatal foreskin. […] The cell lysate was analyzed for procollagen using ELISA (Takara, Shiga, Japan) as per instructions and normalized to total protein.

| SMILES | non-toxic dose in L20 toxicity assay ([1]; different doses, absorbance at 490 nm) [%] | doses with moderate toxicity ([1]; human, 48 h) | melanin extracted and quantified from melanocyte cultures ([2]; L20 0.001%, 7 days, versus untreated and DMSO control, FIG. 1c) | melanin synthesis ([2]; normal neonatal human epidermal melanocytes, FIGS. 1a-c) | visual skin-lightening effect on melanoderms ([3]; 0.5% and 1%, two weeks, FIG. 2b) | regression study: reversibility of melanin inhibition after removal of L20 ([3]; 0.5% dose group, taken off L20 after one week of treatment) | microscopic observation of melanin ([3]; 24 h after the initial treatment) | decrease of melanin content compared to control ([3]; L20 0.1%, two weeks) [%] | decrease of melanin content compared to control ([3]; L20 0.5%, two weeks) [%] | decrease of melanin content compared to control ([3]; L20 1%, two weeks) [%] | melanin synthesis ([3]; normal adult human Melanoderm 3D co-cultures, FIGS. 2a-d) | toxicity in MelanoDerm (cell viability) [4] | procollagen production versus vehicle control, normalized to total protein [5] | decrease of melanin content ([3]; positive control, dose not given, two weeks, MelanoDerm) [%] |
| --- | --- | --- | --- | --- | --- | --- | --- | --- | --- | --- | --- | --- | --- | --- |
| NC(=O)CNC(=O)CCCCC1CCSS1 (centres unmarked) [L20, N-lipoic glycinamide] | ≤ 0.001 | more than 0.05% | no detectable melanin; also recorded: did not have any measureable melanin | significantly blocks melanin synthesis | significant skin-lightening effect | reversible inhibition of melanin synthesis | decreased melanin; also recorded: inhibited melanin synthesis | 44 | 56 | 60 | significantly blocks melanin synthesis | non-toxic | significantly increased; also recorded: significantly induces procollagen synthesis; also recorded: induced pro-collagen | – |
| O=c1cc(CO)occ1O [Kojic Acid, reference compound] | – | – | – | – | – | – | – | – | – | – | – | – | – | 27 |

— US12435056B2, “N-lipoic-amino acid or peptide, derivatives and their uses” (NEOSTRATA COMPANY, INC., priority 2016, dated 2025)
